Reference: patent publication US11427615B2, “Peptide compound and application thereof, and composition containing peptide compound” (XDCEXPLORER (SHANGHAI) CO., LTD., priority 2017, dated 2022)
Non-standard residues stand in square brackets, D forms with d. Residues, ends and D or L forms follow the SMILES beside them. *: point of attachment. X13 = CCCCCCCCCCCCCCCCSC1CC(=O)N(CCOCCOCCOCCOCCOCCOCCOCCOCCC(=O)*)C1=O; X8 = CCCCCCCCCCCCCCCCc1cn(CCOCCOCCOCCOCCOCCOCCOCCOCCC(=O)*)nn1; PEG8 = NCCOCCOCCOCCOCCOCCOCCOCCOCCC(=O)O; dPhe(4-I) = N[C@H](Cc1ccc(I)cc1)C(=O)O; Arg(Me) = CNC(=N)NCCC[C@H](N)C(=O)O; Palmitoyl = CCCCCCCCCCCCCCCC(=O)*; Ala(cPr) = N[C@@H](CC1CC1)C(=O)O; Hyp = O=C(O)[C@@H]1C[C@@H](O)CN1; Gly(cPr) = N[C@H](C(=O)O)C1CC1; αMeL = CC(C)C[C@](C)(N)C(=O)O; Cba = N[C@@H](CC1CCC1)C(=O)O; Ac6c = NC1(C(=O)O)CCCCC1; Aze = O=C(O)[C@@H]1CCN1; azaGly = NNC(=O)O

Molecular target: T1, human kiss1 receptor (GPR54) (Homo sapiens, UniProt Q969F8)
T1 construct: host or cells: NFAT-bla CHO-K1 cells (Chinese hamster ovary), purchased recombinant cell line
T1 sequence (Q969F8 whole entry): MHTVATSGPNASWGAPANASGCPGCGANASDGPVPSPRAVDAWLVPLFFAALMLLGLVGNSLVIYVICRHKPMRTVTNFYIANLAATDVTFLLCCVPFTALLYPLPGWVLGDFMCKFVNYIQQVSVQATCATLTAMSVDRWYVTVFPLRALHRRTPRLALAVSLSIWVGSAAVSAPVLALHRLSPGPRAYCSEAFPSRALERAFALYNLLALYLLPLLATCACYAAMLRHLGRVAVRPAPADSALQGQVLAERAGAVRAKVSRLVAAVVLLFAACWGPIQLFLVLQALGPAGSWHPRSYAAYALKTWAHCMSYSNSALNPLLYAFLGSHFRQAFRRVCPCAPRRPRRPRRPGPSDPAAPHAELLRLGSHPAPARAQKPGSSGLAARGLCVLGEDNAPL
Assay: Kiss1 receptor (GPR54) binding activity of agonists, FRET detection in NFAT-bla CHO-K1 cells
Format: cell-based
Details: GPR54; measured according to the method of effect Embodiment 1; preliminary data; read-out: Preliminary measurement data (GPR54) EC50

Row | Compound | EC50
1 | CCCCCCCCCCCCCCCC(=O)NCCOCCOCCOCCOCCOCCOCCOCCOCCC(=O)NCC(=O)NCC(=O)N[C@H](Cc1ccc(I)cc1)C(=O)N1C[C@H](O)C[C@H]1C(=O)N[C@@H](CC(N)=O)C(=O)N[C@H](C(=O)N[C@@H](Cc1ccccc1)C(=O)NNC(=O)N[C@@H](CC(C)C)C(=O)N[C@@H](CCCNC(=N)NC)C(=O)N[C@@H](Cc1c[nH]c2ccccc12)C(N)=O)[C@@H](C)O [YA-366, Palm-PEG8-Gly-Gly-(D-Phe(4-I))-Hyp-Asn-Thr-Phe-AzaGly-Leu-Arg(Me)-Trp-NH2] ({Palmitoyl-PEG8}-GG[dPhe(4-I)][Hyp]NTF[azaGly]L[Arg(Me)]W-NH2) | 0.048 nM
2 | CCCCCCCCCCCCCCCCc1cn(CCOCCOCCOCCOCCOCCOCCOCCOCCC(=O)NCC(=O)NCC(=O)N[C@H](Cc2ccc(O)cc2)C(=O)N2C[C@H](O)C[C@H]2C(=O)N[C@@H](CC(N)=O)C(=O)N[C@H](C(=O)N[C@@H](Cc2ccccc2)C(=O)NNC(=O)N[C@@H](CC(C)C)C(=O)N[C@@H](CCCNC(=N)NC)C(=O)N[C@@H](Cc2c[nH]c3ccccc23)C(N)=O)[C@@H](C)O)nn1 [YA-367, M10 [Hexadecyl-1,2,3-Triazole-PEG8, G43, G44, D-Tyr45, Hyp46, des47, T49, AzaGly51, R(Me)53, W54]] (X8-GG[dY][Hyp]NTF[azaGly]L[Arg(Me)]W-NH2) | 0.103 nM
3 | CCCCCCCCCCCCCCCCSC1CC(=O)N(CCOCCOCCOCCOCCOCCOCCOCCOCCC(=O)NCC(=O)NCC(=O)N[C@H](Cc2ccc(O)cc2)C(=O)N2C[C@H](O)C[C@H]2C(=O)N[C@@H](CC(N)=O)C(=O)N[C@H](C(=O)N[C@@H](Cc2ccccc2)C(=O)NNC(=O)N[C@@H](CC(C)C)C(=O)N[C@@H](CCCNC(=N)NC)C(=O)N[C@@H](Cc2c[nH]c3ccccc23)C(N)=O)[C@@H](C)O)C1=O (stereo partly drawn) [YA-368, M10 [Hexadecyl-S-maleimide-PEG8, G43, G44, D-Tyr45, Hyp46, des47, T49, AzaGly51, R(Me)53, W54]] (X13-GG[dY][Hyp]NTF[azaGly]L[Arg(Me)]W-NH2) | 0.051 nM
4 | CNC(=N)NCCC[C@H](NC(=O)[C@H](CC(C)C)NC(=O)NNC(=O)[C@H](Cc1ccccc1)NC(=O)[C@@H](NC(=O)[C@H](CC(N)=O)NC(=O)[C@](C)(CC(C)C)NC(=O)[C@@H](Cc1ccc(O)cc1)NC(C)=O)[C@@H](C)O)C(=O)N[C@@H](Cc1c[nH]c2ccccc12)C(N)=O [YA-379, Ac-(D-Tyr)-AlphaMeLeu-Asn-Thr-Phe-azaGly-Leu-Arg(Me)-Trp-NH2] (Ac-[dY][αMeL]NTF[azaGly]L[Arg(Me)]W-NH2) | 0.015 nM
5 | CNC(=N)NCCC[C@H](NC(=O)[C@H](CC(C)C)NC(=O)NNC(=O)[C@H](Cc1ccccc1)NC(=O)[C@@H](NC(=O)[C@H](CC(N)=O)NC(=O)[C@H](CC1CCC1)NC(=O)[C@@H](Cc1ccc(O)cc1)NC(C)=O)[C@@H](C)O)C(=O)N[C@@H](Cc1c[nH]c2ccccc12)C(N)=O [YA-380, Ac-(D-Tyr)-Cba-Asn-Thr-Phe-azaGly-Leu-Arg(Me)-Trp-NH2] (Ac-[dY][Cba]NTF[azaGly]L[Arg(Me)]W-NH2) | 0.191 nM
6 | CNC(=N)NCCC[C@H](NC(=O)[C@H](CC(C)C)NC(=O)NNC(=O)[C@H](Cc1ccccc1)NC(=O)[C@@H](NC(=O)[C@H](CC(N)=O)NC(=O)[C@H](CC1CC1)NC(=O)[C@@H](Cc1ccc(O)cc1)NC(C)=O)[C@@H](C)O)C(=O)N[C@@H](Cc1c[nH]c2ccccc12)C(N)=O [YA-383, Ac-(D-Tyr)-Cpa-Asn-Thr-Phe-azaGly-Leu-Arg(Me)-Trp-NH2] (Ac-[dY][Ala(cPr)]NTF[azaGly]L[Arg(Me)]W-NH2) | 0.074 nM
7 | CNC(=N)NCCC[C@H](NC(=O)[C@H](CC(C)C)NC(=O)NNC(=O)[C@H](Cc1ccccc1)NC(=O)C1(NC(=O)[C@H](CC(N)=O)NC(=O)[C@@H]2C[C@@H](O)CN2C(=O)[C@@H](Cc2ccc(O)cc2)NC(C)=O)CCCCC1)C(=O)N[C@@H](Cc1c[nH]c2ccccc12)C(N)=O [YA-387, Ac-(D-Tyr)-Hyp-Asn-A6c-Phe-azaGly-Leu-Arg(Me)-Trp-NH2] (Ac-[dY][Hyp]N[Ac6c]F[azaGly]L[Arg(Me)]W-NH2) | 0.041 nM
8 | CNC(=N)NCCC[C@H](NC(=O)[C@H](CC(C)C)NC(=O)NNC(=O)[C@H](Cc1ccccc1)NC(=O)[C@@H]1CCN1C(=O)[C@H](CC(N)=O)NC(=O)[C@@H]1C[C@@H](O)CN1C(=O)[C@@H](Cc1ccc(O)cc1)NC(C)=O)C(=O)N[C@@H](Cc1c[nH]c2ccccc12)C(N)=O [YA-388, Ac-(D-Tyr)-Hyp-Asn-Aze-Phe-azaGly-Leu-Arg(Me)-Trp-NH2] (Ac-[dY][Hyp]N[Aze]F[azaGly]L[Arg(Me)]W-NH2) | 0.058 nM

Same assay, conditions: human kiss1 receptor (GPR54), NFAT-bla CHO-K1 cells, FRET; preliminary data; method of effect Embodiment 1; read-out: Preliminary measurement data (GPR54) EC50

Row | Compound | EC50
9 | CNC(=N)NCCC[C@H](NC(=O)[C@H](CC(C)C)NC(=O)[C@](C)(CC(C)C)NC(=O)[C@H](Cc1ccccc1)NC(=O)[C@@H](NC(=O)[C@H](CC(N)=O)NC(=O)[C@@H]1C[C@@H](O)CN1C(=O)[C@@H](Cc1ccc(O)cc1)NC(C)=O)[C@@H](C)O)C(=O)N[C@@H](Cc1c[nH]c2ccccc12)C(N)=O [YA-370, Ac-(D-Tyr)-Hyp-Asn-Thr-Phe-(α-Me-Leu)-Leu-Arg(Me)-Trp-NH2] (Ac-[dY][Hyp]NTF[αMeL]L[Arg(Me)]W-NH2) | 1.56 nM
10 | CNC(=N)NCCC[C@H](NC(=O)[C@H](CC(C)C)NC(=O)[C@@H](NC(=O)[C@H](Cc1ccccc1)NC(=O)[C@@H](NC(=O)[C@H](CC(N)=O)NC(=O)[C@@H]1C[C@@H](O)CN1C(=O)[C@@H](Cc1ccc(O)cc1)NC(C)=O)[C@@H](C)O)C1CC1)C(=O)N[C@@H](Cc1c[nH]c2ccccc12)C(N)=O [YA-396, Ac-(D-Tyr)-Hyp-Asn-Thr-Phe-Cpg-Leu-Leu-Arg(Me)-Trp-NH2] (Ac-[dY][Hyp]NTF[Gly(cPr)]L[Arg(Me)]W-NH2) | 1.19 nM
